Converted amounts (≈) assume the structure as drawn. “And” between values parts separate entries of the source, which are not always exact repeats. Equal entries are not always repeated. Where two headings read alike, the source gives them in different places.
What was measured:
[1] = test system: WT Mtb (Erdman) in primary murine BMDMs; test: Primary murine bone marrow-derived macrophage infection, CFU; type: cell-based, Mycobacterium tuberculosis; settings: for CFU/ml in BMDMs, average: Fig 1I; for CFU/ml: Fig. 2E, 10 µM
[2] = test system: CDC1551(rv1405c′::GFP) reporter Mtb strain; test: microbe, parasite or virus in culture; type: cell-based, Mycobacterium tuberculosis; settings: for NPA - rv1405c'::GFP, average: Fig 1D
CYP2C9 = CYP2C9 (Homo sapiens, UniProt P11712); test: Human cytochrome P450 inhibition, 2C9; type: in vitro ADME; settings: read-out: % inhibition of CYP 2C9
Chain of CYP2C9 (P11712 whole entry): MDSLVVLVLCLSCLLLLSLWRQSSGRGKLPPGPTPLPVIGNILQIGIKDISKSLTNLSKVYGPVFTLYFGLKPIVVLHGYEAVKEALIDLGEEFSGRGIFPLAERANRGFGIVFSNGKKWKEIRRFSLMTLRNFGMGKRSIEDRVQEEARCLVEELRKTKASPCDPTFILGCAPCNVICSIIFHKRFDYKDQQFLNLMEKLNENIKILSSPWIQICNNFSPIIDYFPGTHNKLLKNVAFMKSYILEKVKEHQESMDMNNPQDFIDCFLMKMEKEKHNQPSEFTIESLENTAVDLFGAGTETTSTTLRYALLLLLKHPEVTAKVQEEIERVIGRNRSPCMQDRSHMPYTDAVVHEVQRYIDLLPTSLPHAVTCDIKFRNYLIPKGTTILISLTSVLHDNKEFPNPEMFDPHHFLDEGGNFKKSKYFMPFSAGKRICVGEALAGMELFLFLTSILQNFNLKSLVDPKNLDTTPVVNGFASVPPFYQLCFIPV
Description: (§1) Assays examining mouse and human liver microsomal stability, kinetic aqueous solubility, mouse and human plasma protein binding and stability, and human cytochrome P450 inhibition characteristics of the compounds were run by BioDuro (San Diego, CA), using standard protocols as previously described [37]. hERG inhibition assays were also performed by BioDuro.

[3] = test system: Mtb growth in cholesterol media; set-up: method as in PubChem AID 1259343; settings: ref PubChem AID 1259343; cited from earlier work
Human plasma stability = type: in vitro ADME; settings: 5-h incubation
Description: as §1

[4] = Vero cell toxicity assay (MTS); type: cell-based; settings: African green monkey, Vero cells
Description: Vero cells (African green monkey kidney epithelial cells; ATCC CCL-81) were maintained in DMEM + 10% FBS. For the cell toxicity assay, Vero cells were plated at 1 × 10^5 cells/well in a 96-well plate and incubated for 2 to 3 hours to allow cells to settle. The test compound was dissolved in DMSO at a final concentration of 12 mg/ml. The test compound solution was then added to plated cells, resulting in final test concentrations of 50 to 0.78 μg/ml, with each concentration tested at least in duplicate. To evaluate […] cell viability, 20 μl of a 1:20 MTS:PMS reagent (Promega CellTiter 96 AQueous nonradioactive cell proliferation assay kit) was added to each well after 72 hours of incubation at 37°C, and the plate then incubated for an additional 3 hours. Absorbance at 490 nm was read on a Molecular Devices SpectraMax M5 microplate reader. The CC50 (the minimal amount of compound that inhibited Vero cell growth by 50%) was extrapolated by plotting absorbance at 490 nm versus the concentration […].

[5] = test system: CDC1551(rv2390c′::GFP) reporter Mtb strain; settings: for Normalized % induction: Fig. 2C, DMSO = 100
[6] = test system: Mtb growth in J774 murine macrophage-like cells; test: microbe, parasite or virus in culture; type: cell-based, Mycobacterium tuberculosis; settings: for NPI (Mtb growth in J774 cells), average: Fig 1F
[7] = Kinetic aqueous solubility; type: physicochemical; settings: pH 7.4 phosphate buffered saline; read-out: kinetic aqueous solubility (S)
Description: as §1

[8] = Human plasma protein binding; type: in vitro ADME
Mtb-infected J774 cells = settings: 10 μM, 24 hours, 5 days post-infection
[9] = Mouse plasma protein binding; type: in vitro ADME
Description: as §1

CYP2C19 = CYP2C19 (Homo sapiens, UniProt P33261); test: Human cytochrome P450 inhibition, 2C19; type: in vitro ADME; settings: read-out: % inhibition of CYP 2C19
Chain of CYP2C19 (P33261 whole entry): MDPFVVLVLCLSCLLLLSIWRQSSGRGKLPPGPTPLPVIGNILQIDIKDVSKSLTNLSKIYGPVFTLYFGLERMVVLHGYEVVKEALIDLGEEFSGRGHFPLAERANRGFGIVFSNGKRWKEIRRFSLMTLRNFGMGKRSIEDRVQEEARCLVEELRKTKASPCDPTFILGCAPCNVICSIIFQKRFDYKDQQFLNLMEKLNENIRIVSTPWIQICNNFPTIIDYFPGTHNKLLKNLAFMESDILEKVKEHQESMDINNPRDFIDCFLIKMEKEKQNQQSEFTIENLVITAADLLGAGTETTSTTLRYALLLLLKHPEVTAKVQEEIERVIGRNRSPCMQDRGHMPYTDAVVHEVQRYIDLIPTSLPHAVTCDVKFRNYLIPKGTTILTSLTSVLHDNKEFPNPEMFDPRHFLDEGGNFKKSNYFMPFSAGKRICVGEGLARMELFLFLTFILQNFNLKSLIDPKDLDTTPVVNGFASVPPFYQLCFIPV
Description: as §1

**Q.** With `CCSc1ncc(CN2CCN(c3nc4ccccc4o3)CC2)cn1` [C6, 2-(4-((2-(ethylthio)pyrimidin-5-yl)methyl)piperazin-1-yl)benzo[d]oxazole] as the compound, how does the “Effect on bacterial load / Mtb growth in primary murine BMDMs” value ([1]; 10 μM, 8-day infection time course, vs DMSO) read?
**A.** significant decrease in bacterial load

**Q.** What about the “CFU/ml in BMDMs, average” value ([1]; 10 μM, day 2) of the same compound?
**A.** 153500 CFU/ml

**Q.** What about the “CFU/ml in BMDMs, average” value ([1]; 10 μM, day 4) of the same compound?
**A.** 188500 CFU/ml

**Q.** And the “CFU/ml in BMDMs, average” value ([1]; 10 μM, day 6)?
**A.** 283000 CFU/ml

**Q.** What about the “CFU/ml in BMDMs, average” value ([1]; 10 μM, day 8) of the same compound?
**A.** 322500 CFU/ml

**Q.** And the CFU/ml ([1]; day 2, average)?
**A.** 426000 CFU/ml

**Q.** And the CFU/ml ([1]; day 2, individual replicates)?
**A.** 406000 CFU/ml and 418000 CFU/ml and 454000 CFU/ml

**Q.** And the CFU/ml ([1]; day 4, average)?
**A.** 573333 CFU/ml

**Q.** And the CFU/ml ([1]; day 4, individual replicates)?
**A.** 580000 CFU/ml and 640000 CFU/ml and 500000 CFU/ml

**Q.** What about the CFU/ml ([1]; day 6, average) of the same compound?
**A.** 746667 CFU/ml

**Q.** And the CFU/ml ([1]; day 6, individual replicates)?
**A.** 700000 CFU/ml and 660000 CFU/ml and 880000 CFU/ml

**Q.** What about the CFU/ml ([1]; day 8, average) of the same compound?
**A.** 1020000 CFU/ml

**Q.** And the CFU/ml ([1]; day 8, individual replicates)?
**A.** 880000 CFU/ml and 1100000 CFU/ml and 1080000 CFU/ml

**Q.** And the “NPA - rv1405c'::GFP, average” value ([2]; 0.0390625 µM)?
**A.** 91.7667%

**Q.** And the “NPA - rv1405c'::GFP, average” value ([2]; 0.078125 µM)?
**A.** 104.333%

**Q.** What about the “NPA - rv1405c'::GFP, average” value ([2]; 0.15625 µM) of the same compound?
**A.** 97.8333%

**Q.** And the “NPA - rv1405c'::GFP, average” value ([2]; 0.3125 µM)?
**A.** 95.1667%

**Q.** What about the “NPA - rv1405c'::GFP, average” value ([2]; 0.625 µM) of the same compound?
**A.** 93.7333%

**Q.** What about the “NPA - rv1405c'::GFP, average” value ([2]; 1.25 µM) of the same compound?
**A.** 103.333%

**Q.** And the “NPA - rv1405c'::GFP, average” value ([2]; 2.5 µM)?
**A.** 124.667%

**Q.** What about the “NPA - rv1405c'::GFP, average” value ([2]; 5 µM) of the same compound?
**A.** 141%

**Q.** And the “NPA - rv1405c'::GFP, average” value ([2]; 10 µM)?
**A.** 137.333%

**Q.** What about the “NPA - rv1405c'::GFP, average” value ([2]; 20 µM) of the same compound?
**A.** 161.5%

**Q.** And the activity at 10 µM ([2]; Mycobacterium tuberculosis, read-out: rv1405c'::GFP secondary assay NPA% at 10 µM compound)?
**A.** 137 ± 15%

**Q.** And the activity at 20 µM ([2]; Mycobacterium tuberculosis, read-out: rv1405c'::GFP secondary assay NPA% at 20 µM compound)?
**A.** 162 ± 3.5%

**Q.** What about the inhibition at 10 µM (CYP2C9) of the same compound?
**A.** 25.7%

**Q.** What about the “Call in screen for inhibition of Mtb growth in cholesterol media” value [3] of the same compound?
**A.** positive for growth inhibition

**Q.** And the remaining at 5 h (Human plasma stability)?
**A.** 94.6%

**Q.** What about the CC50 at 72 h [4] of the same compound?
**A.** > 50 µg/mL

**Q.** What about the Normalized % induction ([5]; average of 3 replicates) of the same compound?
**A.** 141.019%

**Q.** What about the Normalized % induction ([5]; individual replicates) of the same compound?
**A.** 121.516% and 141.974% and 159.566%

**Q.** What about the “Ability to increase rv2390c′::GFP reporter signal in high [Cl−]” value ([5]; pH 7) of the same compound?
**A.** increased rv2390c′::GFP reporter signal

**Q.** And the “NPI (Mtb growth in J774 cells), average” value ([6]; 0.078125 µM, 5 µM rifampicin = 100% inhibition)?
**A.** -7.09%

**Q.** What about the “NPI (Mtb growth in J774 cells), average” value ([6]; 0.15625 µM) of the same compound?
**A.** -2.13%

**Q.** And the “NPI (Mtb growth in J774 cells), average” value ([6]; 0.3125 µM)?
**A.** -0.93%

**Q.** What about the “NPI (Mtb growth in J774 cells), average” value ([6]; 0.625 µM) of the same compound?
**A.** -0.1%

**Q.** What about the “NPI (Mtb growth in J774 cells), average” value ([6]; 1.25 µM) of the same compound?
**A.** 17.45%

**Q.** What about the “NPI (Mtb growth in J774 cells), average” value ([6]; 2.5 µM) of the same compound?
**A.** 26.3%

**Q.** What about the “NPI (Mtb growth in J774 cells), average” value ([6]; 5 µM) of the same compound?
**A.** 38%

**Q.** And the “NPI (Mtb growth in J774 cells), average” value ([6]; 10 µM)?
**A.** 40.45%

**Q.** And the “NPI (Mtb growth in J774 cells), average” value ([6]; 20 µM)?
**A.** 53.6%

**Q.** And the inhibition at 10 µM ([6]; Mycobacterium tuberculosis, J774, 144 h, read-out: J774 tertiary assay % inhibition compared to Rif at 10 µM compound)?
**A.** 40.5 ± 0.6%

**Q.** What about the inhibition at 20 µM ([6]; Mycobacterium tuberculosis, J774, 144 h, read-out: J774 tertiary assay % inhibition compared to Rif at 20 µM compound) of the same compound?
**A.** 53.6 ± 2.7%

**Q.** What about the solubility kinetic [7] of the same compound?
**A.** 76.4 µM (≈ 27.2 µg/mL)

**Q.** And the fraction unbound [8]?
**A.** 0.008

**Q.** And the “Accumulation in Mtb-infected J774 cells” value (Mtb-infected J774 cells)?
**A.** confirmed C6 accumulation

**Q.** What about the fraction unbound [9] of the same compound?
**A.** 0.03

**Q.** What about the inhibition at 10 µM (CYP2C19) of the same compound?
**A.** 30.3%

Reference: PMC8351955, “Targeting Mycobacterium tuberculosis response to environmental cues for the development of effective antitubercular drugs” (PLoS Biology, 2021)
